{
  "source": "patent US20090269794A1",
  "about": "“SCREENING METHOD FOR COMPOUND INHIBITING DEVELOPMENT OR PROGRESSION OF FAMILIAL AMYOTROPHIC LATERAL SCLEROSIS AND DIAGNOSTIC METHOD FOR FAMILIAL AMYOTROPHIC LATERAL SCLEROSIS” (HISAMITSU PHARMACEUTICAL CO., INC., priority 2005, published 2009)",
  "key": {"HIF-1α": {"tested_on": "HIF-1α", "conditions": "cells exposed to DFO, normal oxygen conditions, Non-patent document 12; cited from earlier work"}, "NEDL1 mRNA": {"tested_on": "NEDL1 mRNA", "test": "NEDL1 mRNA expression by semi-quantitative RT-PCR in SK-N-BE (2) C cells", "format": "cell-based, human", "conditions": "250 μM DFO for 24 hours, FIG. 2", "procedure": "Human neuroblastoma SK-N-BE (2) C cells were cultured in Dulbecco's […] (DMEM) containing 10% heat treated fetal bovine serum (FBS). Hypoxia culturing was carried out in a 2% oxygen concentration, with the cells in a Napco automatic O2/CO2 cell culture apparatus (Waken Co., Ltd.). DFO (Sigma) treatment was carried out by exposing the cells to 250 μM DFO for 24 hours.\n(Reverse Transcription Polymerase Chain Reaction (RT-PCR)) TRIZOL reagent (Invitrogen Corp.) was used according to the manufacturer's manual to prepare total RNA from untreated, hypoxia-treated, DFO-treated cells and the transfected cells. RT-PCR was conducted in the following manner. The prepared total RNA (1 μg/2.5 μL) was incubated at 75° C. for 5 minutes and then allowed to stand on ice for 5 minutes. The prepared RNA was added to a mixture of 0.5 μL RNase inhibitor (40 units/μL, Toyobo, Ltd.), 0.5 μL M-MLV reverse transcriptase (200 units/μL, Invitrogen Corp.), 1 μL 50×dNTPs (2 mM each), 0.5 μL oligo(dT) primer (0.5 mg/mL, Invitrogen Corp.), 2 μL 5×first-strand buffer (Invitrogen Corp.) and 1 μL 0.1 M dithiothreitol, and the mixture was incubated for 10 minutes at room temperature, 45 minutes at 37° C. and 3 minutes at 95° C. to prepare cDNA. The prepared cDNA was used as template with the primers under the following PCR conditions to amplify the NEDL1 and β-actin gene cDNA fragments. […]"}},
  "data": [
    {"smiles": "CC(=O)N(O)CCCCCNC(=O)CCC(=O)N(O)CCCCCNC(=O)CCC(=O)N(O)CCCCCN", "note": "[DFO, desferrioxamine]", "values": [
      {"measurement": "HIF-1α detection as protein", "setting": "HIF-1α", "result": "detected"},
      {"measurement": "NEDL1 mRNA expression", "setting": "NEDL1 mRNA", "result": "increased"}
    ]}
  ]
}
